The source made the active and inactive calls. The rule behind the calls is not given here.

In PubChem BioAssay AID1259407 (Chemical Carcinogenesis Research Information System (CCRIS), 2018) one finds mutagenic call data, which are given here for 2 compounds.

The test system of this data set is CCRIS mutagenicity, Ames/micronucleus/aberration tests. Kind of data set: CCRIS mutagenicity studies.

As for `Cc1cccn2c1nc1ccc(N)nc12`, the mutagenic call is “active; positive” (Test System: AMES SALMONELLA TYPHIMURIUM, Strain/Indicator: TA98, Metabolic Activation: MOUSE, LIVER, MICROSOMES, TCDD, Method: STANDARD PLATE); “active; positive” (Test System: AMES SALMONELLA TYPHIMURIUM, Strain/Indicator: TA98, Metabolic Activation: MOUSE, LIVER, MICROSOMES, Method: STANDARD PLATE); “inactive; negative” (Test System: AMES SALMONELLA TYPHIMURIUM, Strain/Indicator: TA98, Metabolic Activation: RAT LIVER, CYTOSOL, AROCLOR 1254, Method: STANDARD PLATE); “active; positive” (Test System: AMES SALMONELLA TYPHIMURIUM, Strain/Indicator: TA98, Metabolic Activation: RAT LIVER, MICROSOMES, AROCLOR 1254, Method: STANDARD PLATE); “active; positive” (Test System: AMES SALMONELLA TYPHIMURIUM, Strain/Indicator: TA98, Metabolic Activation: RAT, LIVER, MICROSOMES, 1-METHYLCHRYSENE, Method: PREINCUBATION); “active; positive” (Test System: AMES SALMONELLA TYPHIMURIUM, Strain/Indicator: TA98, Metabolic Activation: RAT, LIVER, MICROSOMES, 2-METHYLCHRYSENE, Method: PREINCUBATION). Also, the mutagenic call runs as follows: (Test System: AMES SALMONELLA TYPHIMURIUM, Strain/Indicator: TA98, Metabolic Activation: RAT, LIVER, MICROSOMES, 3-METHYLCHRYSENE, Method: PREINCUBATION) “active; positive”; (Test System: AMES SALMONELLA TYPHIMURIUM, Strain/Indicator: TA98, Metabolic Activation: RAT, LIVER, MICROSOMES, 4-METHYLCHRYSENE, Method: PREINCUBATION) “active; positive”; (Test System: AMES SALMONELLA TYPHIMURIUM, Strain/Indicator: TA98, Metabolic Activation: RAT, LIVER, MICROSOMES, 5-METHYLCHRYSENE, Method: PREINCUBATION) “active; positive”; (Test System: AMES SALMONELLA TYPHIMURIUM, Strain/Indicator: TA98, Metabolic Activation: RAT, LIVER, MICROSOMES, 6-AMINOCHRYSENE, Method: PREINCUBATION) “active; positive”; (Test System: AMES SALMONELLA TYPHIMURIUM, Strain/Indicator: TA98, Metabolic Activation: RAT, LIVER, MICROSOMES, 6-METHYLCHRYSENE, Method: PREINCUBATION) “active; positive”; (Test System: AMES SALMONELLA TYPHIMURIUM, Strain/Indicator: TA98, Metabolic Activation: RAT, LIVER, MICROSOMES, BENZO[B]CHRYSENE, Method: PREINCUBATION) “active; positive”. Also, the mutagenic call was “active; positive” (Test System: AMES SALMONELLA TYPHIMURIUM, Strain/Indicator: TA98, Metabolic Activation: RAT, LIVER, MICROSOMES, BENZO[C]CHRYSENE, Method: PREINCUBATION); “active; positive” (Test System: AMES SALMONELLA TYPHIMURIUM, Strain/Indicator: TA98, Metabolic Activation: RAT, LIVER, S-9, AROCLOR 1254, Method: PREINCUBATION); “active; positive” (Test System: AMES SALMONELLA TYPHIMURIUM, Strain/Indicator: TA100, Metabolic Activation: RAT, LIVER, S-9, AROCLOR 1254, Method: PREINCUBATION); “active; positive” (Test System: AMES SALMONELLA TYPHIMURIUM, Strain/Indicator: TA1538, Metabolic Activation: RAT, LIVER, MICROSOMES, 2-ACETYLAMINOFLUORENE, Method: STANDARD PLATE); “active; positive” (Test System: AMES SALMONELLA TYPHIMURIUM, Strain/Indicator: TA1538, Metabolic Activation: RAT, LIVER, MICROSOMES, 4-ACETYLAMINOFLUORENE, Method: STANDARD PLATE); “active; positive” (Test System: AMES SALMONELLA TYPHIMURIUM, Strain/Indicator: TA1538, Metabolic Activation: RAT, LIVER, MICROSOMES, Method: STANDARD PLATE). Moreover, the mutagenic call reads like this: (Test System: AMES SALMONELLA TYPHIMURIUM, Strain/Indicator: YG1012, Metabolic Activation: RAT, LIVER, S-9, PHENOBARBITAL AND 5,6-BENZOFLAVONE, Method: PREINCUBATION) “active; positive”; (Test System: AMES SALMONELLA TYPHIMURIUM, Strain/Indicator: YG1019, Metabolic Activation: RAT LIVER S-9, AROCLOR, Method: PREINCUBATION) “active; positive”; (Test System: AMES SALMONELLA TYPHIMURIUM, Strain/Indicator: YG1019, Metabolic Activation: RAT, LIVER, S-9, PHENOBARBITAL AND 5,6-BENZOFLAVONE, Method: PREINCUBATION) “active; positive”; (Test System: AMES SALMONELLA TYPHIMURIUM, Strain/Indicator: YG1020, Metabolic Activation: RAT, LIVER, S-9, PHENOBARBITAL AND 5,6-BENZOFLAVONE, Method: PREINCUBATION) “active; positive”; (Test System: AMES SALMONELLA TYPHIMURIUM, Strain/Indicator: YG1024, Metabolic Activation: RAT, LIVER, S-9, PHENOBARBITAL AND 5,6-BENZOFLAVONE, Method: PREINCUBATION) “active; positive”; (Test System: AMES SALMONELLA TYPHIMURIUM, Strain/Indicator: YG1025, Metabolic Activation: RAT, LIVER, S-9, PHENOBARBITAL AND 5,6-BENZOFLAVONE, Method: PREINCUBATION) “active; positive”. Moreover, the mutagenic call was “active; positive” (Test System: AMES SALMONELLA TYPHIMURIUM, Strain/Indicator: YG1029, Metabolic Activation: RAT, LIVER, S-9, PHENOBARBITAL AND 5,6-BENZOFLAVONE, Method: PREINCUBATION); “active; positive” (Test System: UDS HUMAN HEPATOCYTES, Strain/Indicator: THY INCORP, Metabolic Activation: NONE, Method: AUTORADIOGRAPHY); “active; positive” (Test System: UDS MOUSE HEPATOCYTES, Strain/Indicator: THY INCORP, Metabolic Activation: NONE, Method: AUTORADIOGRAPHY); “inactive; negative” (Test System: UDS RAT HEPATOCYTES, Strain/Indicator: THY INCORP, Metabolic Activation: NONE, Method: AUTORADIOGRAPHY).
For `O=c1[nH]sc2cc([N+](=O)[O-])ccc12`, the mutagenic call (Test System: AMES SALMONELLA TYPHIMURIUM, Strain/Indicator: TA100, Metabolic Activation: NONE, Method: STANDARD PLATE) was “active; positive”.
